Test results from patent publication US8653041B2, “Antibacterial aminoglycoside analogs” (Achaogen, Inc., priority 2010, dated 2014).

Columns and labels:
Pseudomonas aeruginosa = test: MIC, CLSI broth microdilution, Pseudomonas aeruginosa panel; format: cell-based
Description: (§1) Minimum inhibitory concentrations (MIC) were determined by reference Clinical and Laboratory Standards Institute (CLSI) broth microdilution methods per M7-A7 [2006]. Quality control ranges utilizing E. coli ATCC 25922, P. aeruginosa ATCC 27853 and S. aureus ATCC 29213, and interpretive criteria for comparator agents were as published in CLSI M100-S17 [2007]. Briefly, serial two-fold dilutions of the test compounds were prepared at 2× concentration in Mueller Hinton Broth. The compound dilutions were mixed in 96-well assay plates in a 1:1 ratio with bacterial inoculum. The inoculum was prepared by suspension of a colony from an agar plate that was prepared the previous day. Bacteria were suspended in sterile saline and added to each assay plate to obtain a final concentration of 5×10^5 CFU/mL. The plates were incubated at 35 C for 20 hours in ambient air.
The MIC panel presented in Table 1 contains 27 isolates of Pseudomonas aeruginosa: strains 1-22 are clinical isolates from around the world collected between 2004-2007 which contain representative resistance mechanisms commonly found in Pseudomonas, such as the AAC(6′)-I, AAC(6′)-II, APH(3′)-IIb, ANT(2″)-I, and perm/efflux; strains 23-27 are susceptible.

Acinetobacter baumannii = test: MIC, CLSI broth microdilution, Acinetobacter baumannii panel; format: cell-based
Description: as §1
The MIC panel presented in Table 2 contains 29 isolates of Acinetobacter baumannii: strains 1-24 are clinical isolates from around the world collected between 2004-2007 which contain representative resistance mechanisms commonly found in Acinetobacter baumannii, such as AAC(3)-I and II, AAC(6′)-I, ANT(2″)-I, APH(3′)-VI, and perm/efflux; strains 25-29 are susceptible.

[1] = 14-day rat toxicology (nephrotoxicity), once-daily subcutaneous injection; details: once daily, 14 days, Sprague-Dawley rat
Description: The study design utilized once-daily subcutaneous injection administration to the rat for 14 days and assessment of reversibility of any changes following a 28-day recovery period.
The dose volume administered to each animal was 1 mL/kg.

For gentamicin, the MIC (Pseudomonas aeruginosa; P. aeruginosa clinical strain 1 (resistant clinical isolate)) was “D (MIC's greater than or equal to 16.0 μg/mL and lower than 32 μg/mL = D)”, the MIC (Pseudomonas aeruginosa; P. aeruginosa clinical strain 2 (resistant clinical isolate)) was “E (MIC's greater than or equal to 32.0 μg/mL = E)” and the MIC (Pseudomonas aeruginosa; P. aeruginosa clinical strain 3 (resistant clinical isolate)) was “E (MIC's greater than or equal to 32.0 μg/mL = E)”. For the same substance, the MIC (Pseudomonas aeruginosa; P. aeruginosa clinical strain 4 (resistant clinical isolate)) was “E (MIC's greater than or equal to 32.0 μg/mL = E)”, the MIC (Pseudomonas aeruginosa; P. aeruginosa clinical strain 5 (resistant clinical isolate)) was “E (MIC's greater than or equal to 32.0 μg/mL = E)” and the MIC (Pseudomonas aeruginosa; P. aeruginosa clinical strain 6 (resistant clinical isolate)) was “E (MIC's greater than or equal to 32.0 μg/mL = E)”. The MIC (Pseudomonas aeruginosa; P. aeruginosa clinical strain 7 (resistant clinical isolate)) was “E (MIC's greater than or equal to 32.0 μg/mL = E)”, the MIC (Pseudomonas aeruginosa; P. aeruginosa clinical strain 8 (resistant clinical isolate)) was “E (MIC's greater than or equal to 32.0 μg/mL = E)” and the MIC (Pseudomonas aeruginosa; P. aeruginosa clinical strain 9 (resistant clinical isolate)) was “E (MIC's greater than or equal to 32.0 μg/mL = E)”. For the same substance, the MIC (Pseudomonas aeruginosa; P. aeruginosa clinical strain 10 (resistant clinical isolate)) was “E (MIC's greater than or equal to 32.0 μg/mL = E)”, the MIC (Pseudomonas aeruginosa; P. aeruginosa clinical strain 11 (resistant clinical isolate)) was “D (MIC's greater than or equal to 16.0 μg/mL and lower than 32 μg/mL = D)” and the MIC (Pseudomonas aeruginosa; P. aeruginosa clinical strain 12 (resistant clinical isolate)) was “E (MIC's greater than or equal to 32.0 μg/mL = E)”. The MIC (Pseudomonas aeruginosa; P. aeruginosa clinical strain 13 (resistant clinical isolate)) was “E (MIC's greater than or equal to 32.0 μg/mL = E)”, the MIC (Pseudomonas aeruginosa; P. aeruginosa clinical strain 14 (resistant clinical isolate)) was “E (MIC's greater than or equal to 32.0 μg/mL = E)” and the MIC (Pseudomonas aeruginosa; P. aeruginosa clinical strain 15 (resistant clinical isolate)) was “E (MIC's greater than or equal to 32.0 μg/mL = E)”. For the same substance, the MIC (Pseudomonas aeruginosa; P. aeruginosa clinical strain 16 (resistant clinical isolate)) was “E (MIC's greater than or equal to 32.0 μg/mL = E)”, the MIC (Pseudomonas aeruginosa; P. aeruginosa clinical strain 17 (resistant clinical isolate)) was “E (MIC's greater than or equal to 32.0 μg/mL = E)” and the MIC (Pseudomonas aeruginosa; P. aeruginosa clinical strain 18 (resistant clinical isolate)) was “E (MIC's greater than or equal to 32.0 μg/mL = E)”. For the same substance, the MIC (Pseudomonas aeruginosa; P. aeruginosa clinical strain 19 (resistant clinical isolate)) was “E (MIC's greater than or equal to 32.0 μg/mL = E)”, the MIC (Pseudomonas aeruginosa; P. aeruginosa clinical strain 20 (resistant clinical isolate)) was “C (MIC's greater than or equal to 8 μg/mL and lower than 16.0 μg/mL = C)” and the MIC (Pseudomonas aeruginosa; P. aeruginosa clinical strain 21 (resistant clinical isolate)) was “C (MIC's greater than or equal to 8 μg/mL and lower than 16.0 μg/mL = C)”. For the same substance, the MIC (Pseudomonas aeruginosa; P. aeruginosa clinical strain 22 (resistant clinical isolate)) was “B (MIC's of greater than 1.0 μg/mL and lower than 8 μg/mL = B)”, the MIC (Pseudomonas aeruginosa; P. aeruginosa strain 23 (susceptible)) was “A (MIC's of 1.0 μg/mL or less = A)” and the MIC (Pseudomonas aeruginosa; P. aeruginosa strain 24 (susceptible)) was “B (MIC's of greater than 1.0 μg/mL and lower than 8 μg/mL = B)”. For the same substance, the MIC (Pseudomonas aeruginosa; P. aeruginosa strain 25 (susceptible)) was “A (MIC's of 1.0 μg/mL or less = A)”, the MIC (Pseudomonas aeruginosa; P. aeruginosa strain 26 (susceptible)) was “A (MIC's of 1.0 μg/mL or less = A)” and the MIC (Pseudomonas aeruginosa; P. aeruginosa strain 27 (susceptible)) was “A (MIC's of 1.0 μg/mL or less = A)”. The MIC (Acinetobacter baumannii; A. baumannii clinical strain 1 (resistant clinical isolate)) was “E (MIC's greater than or equal to 32.0 μg/mL = E)”, the MIC (Acinetobacter baumannii; A. baumannii clinical strain 2 (resistant clinical isolate)) was “E (MIC's greater than or equal to 32.0 μg/mL = E)” and the MIC (Acinetobacter baumannii; A. baumannii clinical strain 3 (resistant clinical isolate)) was “C (MIC's greater than or equal to 8 μg/mL and lower than 16.0 μg/mL = C)”. The MIC (Acinetobacter baumannii; A. baumannii clinical strain 4 (resistant clinical isolate)) was “E (MIC's greater than or equal to 32.0 μg/mL = E)”, the MIC (Acinetobacter baumannii; A. baumannii clinical strain 5 (resistant clinical isolate)) was “E (MIC's greater than or equal to 32.0 μg/mL = E)” and the MIC (Acinetobacter baumannii; A. baumannii clinical strain 6 (resistant clinical isolate)) was “E (MIC's greater than or equal to 32.0 μg/mL = E)”. For the same substance, the MIC (Acinetobacter baumannii; A. baumannii clinical strain 7 (resistant clinical isolate)) was “E (MIC's greater than or equal to 32.0 μg/mL = E)”, the MIC (Acinetobacter baumannii; A. baumannii clinical strain 8 (resistant clinical isolate)) was “E (MIC's greater than or equal to 32.0 μg/mL = E)” and the MIC (Acinetobacter baumannii; A. baumannii clinical strain 9 (resistant clinical isolate)) was “E (MIC's greater than or equal to 32.0 μg/mL = E)”. The MIC (Acinetobacter baumannii; A. baumannii clinical strain 10 (resistant clinical isolate)) was “E (MIC's greater than or equal to 32.0 μg/mL = E)”, the MIC (Acinetobacter baumannii; A. baumannii clinical strain 11 (resistant clinical isolate)) was “E (MIC's greater than or equal to 32.0 μg/mL = E)” and the MIC (Acinetobacter baumannii; A. baumannii clinical strain 12 (resistant clinical isolate)) was “E (MIC's greater than or equal to 32.0 μg/mL = E)”. The MIC (Acinetobacter baumannii; A. baumannii clinical strain 13 (resistant clinical isolate)) was “A (MIC's of 1.0 μg/mL or less = A)”, the MIC (Acinetobacter baumannii; A. baumannii clinical strain 14 (resistant clinical isolate)) was “B (MIC's of greater than 1.0 μg/mL and lower than 8 μg/mL = B)” and the MIC (Acinetobacter baumannii; A. baumannii clinical strain 15 (resistant clinical isolate)) was “A (MIC's of 1.0 μg/mL or less = A)”. For the same substance, the MIC (Acinetobacter baumannii; A. baumannii clinical strain 16 (resistant clinical isolate)) was “B (MIC's of greater than 1.0 μg/mL and lower than 8 μg/mL = B)”, the MIC (Acinetobacter baumannii; A. baumannii clinical strain 17 (resistant clinical isolate)) was “E (MIC's greater than or equal to 32.0 μg/mL = E)” and the MIC (Acinetobacter baumannii; A. baumannii clinical strain 18 (resistant clinical isolate)) was “E (MIC's greater than or equal to 32.0 μg/mL = E)”. The MIC (Acinetobacter baumannii; A. baumannii clinical strain 19 (resistant clinical isolate)) was “B (MIC's of greater than 1.0 μg/mL and lower than 8 μg/mL = B)”, the MIC (Acinetobacter baumannii; A. baumannii clinical strain 20 (resistant clinical isolate)) was “C (MIC's greater than or equal to 8 μg/mL and lower than 16.0 μg/mL = C)” and the MIC (Acinetobacter baumannii; A. baumannii clinical strain 21 (resistant clinical isolate)) was “E (MIC's greater than or equal to 32.0 μg/mL = E)”. For the same substance, the MIC (Acinetobacter baumannii; A. baumannii clinical strain 22 (resistant clinical isolate)) was “E (MIC's greater than or equal to 32.0 μg/mL = E)”, the MIC (Acinetobacter baumannii; A. baumannii clinical strain 23 (resistant clinical isolate)) was “E (MIC's greater than or equal to 32.0 μg/mL = E)” and the MIC (Acinetobacter baumannii; A. baumannii clinical strain 24 (resistant clinical isolate)) was “E (MIC's greater than or equal to 32.0 μg/mL = E)”. For the same substance, the MIC (Acinetobacter baumannii; A. baumannii strain 25 (susceptible)) was “A (MIC's of 1.0 μg/mL or less = A)”, the MIC (Acinetobacter baumannii; A. baumannii strain 26 (susceptible)) was “A (MIC's of 1.0 μg/mL or less = A)” and the MIC (Acinetobacter baumannii; A. baumannii strain 27 (susceptible)) was “A (MIC's of 1.0 μg/mL or less = A)”. The MIC (Acinetobacter baumannii; A. baumannii strain 28 (susceptible)) was “A (MIC's of 1.0 μg/mL or less = A)”, the MIC (Acinetobacter baumannii; A. baumannii strain 29 (susceptible)) was “A (MIC's of 1.0 μg/mL or less = A)” and the mortality and morbidity ([1]; 100 mg/kg/day subcutaneous) was “resulted in mortality and morbidity at 100 mg/kg/day due to nephrotoxicity”. For the same substance, the “macroscopic and microscopic changes in the kidneys” value ([1]; all dose levels (10, 30 or 100 mg/kg/day) subcutaneous) was “observed at all dose levels”.
